How the values were obtained:
hPSC-derived mDA neurons = assay: Optimizing WNT inhibition in mDA neuron differentiation (qRT-PCR and ICC); assay type: cell-based, human
Excerpt: This example is designed to optimize the temporal window and concentration of the WNT treatment, and to test whether reactivation of non-canonical signaling is required for optimal levels of mDA neuron differentiation or maturation. […] IWP2 inhibits both non-canonical signaling and canonical signaling. The expressions of PITX3, DAT, and VMAT2 are quantified by qRT-PCR and immunocytochemistry (ICC). […] Optimized conditions are validated across hPSC lines (3 hESC and 3 iPSC lines; >3 independent differentiations each) (Zimmer, et al. Proceedings of the National Academy of Sciences of the United States of America 115, […]-[…] (2018)) including male and female lines.

rodent GSK3β homologs = conditions: cited from earlier work
[1] = test system: differentiated mDA cells from hPSC and hiPSC; assay: mRNA expression of marker genes in differentiated mDA cells (Wnt-boost protocol with or without FGF18 and/or IWP2); assay type: cell-based, human
Method: hPSC and hiPSC were used for the differentiation methods. First, the effect of Wnt signaling on ALDH1A1 induction in mDA cells differentiated with different protocols was evaluated. The mRNA expression levels of FOXA2, LMX1A, EN1, WNT1, OTX2, ALDH1A1 and PAX6 were evaluated in day 16-differentiated mDA cells produced using Wnt-boost, Wnt-boost+IWP2 (day 10-day 16), and Wnt-boost+IWP2 (day 12-day 16) protocols, with or without FGF18 (day 12-16) (FIG. 1).
SMA mRNA expression level was not detectable. The Wnt-boost protocol in combination with FGF18 and IWP2 generated optimal A/P and DN patterned precursors, where more than 90% cells are FOXA2/EN1 double positive (FIG. 2A). […] Furthermore, The mRNA expression levels of FOXA2, LMX1A, OTX2, EN1, ALDH1A1, BARHL2, BARHL1, PAX6, ALDH2, and WNT1 were evaluated at day 16 in differentiated mDA cells produced using Wnt-boost, Wnt-boost+IWP2 (day 12-day 16) protocols, with or without FGF18 (FIG. 3). The effect of IWP2 on the expression of marker genes in the differentiated cells was determined. […] The present disclosure observed the presence of very high quadrupole positive cells at day 16 (FOXA2/LMX1A, OTX2/EN1). […] Additionally, the expression of ALDH1A1, WNT1, PITX3, DAT, DDC, VMTA2 were increased by the addition of IWP2 and FGF18, whereas IWP2 lowered the expression of Ki67, SMA and SIX1. Immuno-staining images of day 60-differentiated cells were collected showing the expression of FOXA2, TH, and MAP2 (FIG. 14A), and EN1 and TH (FIG. 14B).
The mRNA expression levels of FOXA2, LMX1A, OTX2, EN1, ALDH1A1, WNT1, BARHL1, PAX6, OTX2, and NKX2-2 were evaluated at day 16 in differentiated mDA cells produced using Wnt-boost, Wnt-boost+IWP2 (day 12-day 16) protocols, with or without FGF18. The present disclosure discovered that IWP2 exposure led to increased ALDH1A1 as well as high endogenous WNT1 expression at day 16 both in Wnt Boost and Wnt Boost+FGF18 conditions. Moreover, IWP2 exposure lowered PAX6 and NKX2-2 expression (FIG. 12).
The mRNA expression of marker genes in sorted day 28-differentiated CD49^weak/CD184^weak cells and CD49^weak/CD184^strong cells were measured (FIGS. 21 and 22).

ALK2, ALK3, and ALK6 = conditions: cited from earlier work
[2] = day 16, both Wnt Boost and Wnt Boost+FGF18 conditions, IWP2 day 12-day 16

In the case of `Oc1nc(-c2ccc(C(F)(F)F)cc2)nc2c1CSCC2` [XAV939], the “inhibition of canonical signaling alone: results comparable to the IWP2 treatment” value (hPSC-derived mDA neurons; preliminary data (not shown)) is reported as “might not be sufficient”.

In the case of `Cc1c[nH]c(-c2cnc(NCCNc3ccc(C#N)cn3)nc2-c2ccc(Cl)cc2Cl)n1` [CHIR99021, 6-(2-(4-(2,4-dichlorophenyl)-5-(4-methyl-1H-imidazol-2-yl)pyrimidin-2-ylamino)ethylamino)nicotinonitrile], the “IC50 values against rodent GSK3β homologs” value (rodent GSK3β homologs) is listed as “nanomolar”.

With `Cc1ccc2nc(NC(=O)CSc3nc4c(c(=O)n3-c3ccccc3)SCC4)sc2c1` [IWP2] the “effect on the expression of EN1 or the emergence of contaminating markers (SIX1 and SMA)” value (hPSC-derived mDA neurons) was “does not negatively affect”, the “expression of Ki67, SMA and SIX1” value ([1]; Wnt-boost protocol, IWP2 day 12 to day 16) was “lowered” and the “expression of ALDH1A1” value ([1]; continued exposure until day 30, day 30-differentiated cells) was “further induced”. The “PAX6 and NKX2-2 expression” value ([1]; day 16, IWP2 day 12-day 16) was “lowered”, the ALDH1A1 expression [1, 2] was “increased” and the “endogenous WNT1 expression” value [1, 2] was “high”. For the same molecule, the “expression of ALDH1A1” value ([1]; exposure from day 12 to day 25, sorted day 28-differentiated cells, confirmed by immunofluorescent staining) was “further induced”.

In the case of `c1ccc2c(-c3cnn4cc(-c5ccc(N6CCNCC6)cc5)cnc34)ccnc2c1` [LDN193189, 4-(6-(4-(piperazin-1-yl)phenyl)pyrazolo[1,5-a]pyrimidin-3-yl)quinoline], the “inhibitor of ALK2, ALK3, and ALK6” value (ALK2, ALK3, and ALK6) is listed as “highly potent”.

B1: FGF18: FGF activator, member of the FGF8 subfamily (protein, UniProt O76093 28-207, looked up)
Fibroblast growth factor 18: EENVDFRIHVENQTRARDDVSRKQLRLYQLYSRTSGKHIQVLGRRISARGEDGDKYAQLLVETDTFGSQVRIKGKETEFYLCMNRKGKLVGKPDGTSKECVFIEKVLENNYTALMSAKYSGWYVGFTKKGRPRKGPKTRENQQDVHFMKRYPKGQPELQKPFKYTTVTKRSRRIRPTHPA
In the case of B1, the “expression of EN1” value ([1]; Wnt-boost protocol, FGF18 day 12 to day 16) is reported as “high expression”.
